Experimental findings from patent US20100144853A1, “NOVEL COMBINED ADMINISTRATION” (priority 2008, published 2010) are described below.

The nature of this data set: Stability of COMPOUND A in human intestinal fluids, Procedure E (suspension, excess separated by centrifugation), stimulated. The settings on record: HIF-stimulated. Format: in vitro ADME. On the procedure: Stimulated Intestinal Fluids: the fluids from 3 different subjects were collected after fasting overnight with a nasojejunal tube and pooled. For the stimulation, twenty minutes before the beginning of the collection, volunteers were provided with chewing-gums and were asked to chew over a 15 minutes period, maintaining the taste by replacing the sticks of gum approximately every 2 minutes.
Procedure E (COMPOUND A and COMPOUND B in Suspension, Excess Compound Separated by Centrifugation):
Stock J=COMPOUND B suspension (2 mg/mL)
100 μL of FeSSIF concentrate and 900 μL of pro-FeSSIF pH6.5 were added to 4 mg commercially available Orlistat formulation (Xenical®) containing 2 mg of lipase inhibitor 1-(3-hexyl-4-oxo-oxetan-2-yl)tridecan-2-yl 2-formyl-amino-4-methyl-pentanoate (COMPOUND B) in a vial and the formulation was dispersed by gently stirring during 15 min to obtain a fine homogenous suspension.
500 μL of freshly thawed intestinal fluids (fasted and stimulated state) were added to 1 mg of COMPOUND A in a 1 mL glass vial immediately followed by the addition of either 0, 10 or 20 μL of COMPOUND B suspension (stock J) corresponding to 0, 40 or 80 μg/mL of COMPOUND B. The amount of COMPOUND B was 0, 2% or 4% COMPOUND B relative to COMPOUND A. The mixture was incubated at 37° C. with gentle stirring. Samples of 90 μL were removed as function of time and centrifuged at 13′000 rpm (about 12′000×g) for 5 min. 50 μL of the supernatant was diluted with 150 μL isopropanol, centrifuged at 5′000 rpm for 5 min and the clear supernatant was analyzed by HPLC.

As to `CCC(CC)CC1(C(=O)Nc2ccccc2SC(=O)C(C)C)CCCCC1` [COMPOUND A, thioisobutyric acid S-(2-{[1-(2-ethyl-butyl)-cyclohexanecarbonyl]-amino}-phenyl)ester], the “Concentration of COMPOUND A” value is 740 ng/mL (with 40 μg/mL of COMPOUND B, 15 min); 550 ng/mL (with 40 μg/mL of COMPOUND B, 30 min); 10530 ng/mL (with 40 μg/mL of COMPOUND B, 1 h); 32710 ng/mL (with 40 μg/mL of COMPOUND B, 2 h); 221310 ng/mL (with 40 μg/mL of COMPOUND B, 4 h); 1000 ng/mL (with 80 μg/mL of COMPOUND B, 15 min). The “Concentration of COMPOUND A” value (with 80 μg/mL of COMPOUND B, 30 min) came out at 11800 ng/mL; the “Concentration of COMPOUND A” value (with 80 μg/mL of COMPOUND B, 1 h) came out at 64630 ng/mL; the “Concentration of COMPOUND A” value (with 80 μg/mL of COMPOUND B, 2 h) was determined as 131640 ng/mL; the “Concentration of COMPOUND A” value (with 80 μg/mL of COMPOUND B, 4 h) was determined as 171250 ng/mL; the “Concentration of COMPOUND A” value (without COMPOUND B, 15 min) came out at 3090 ng/mL; the “Concentration of COMPOUND A” value (without COMPOUND B, 30 min) amounted to 520 ng/mL. In addition, the “Concentration of COMPOUND A” value reads like this: (without COMPOUND B, 1 h) 620 ng/mL; (without COMPOUND B, 2 h) 820 ng/mL; (without COMPOUND B, 4 h) 1310 ng/mL.
